From article PMC6381106 (Scientific Reports, 2019)
No end group written: not given here.

Key:
[1] = test system: IL-6-induced adhesion of THP-1 to HMEC-1 cells; assay: Monocyte binding assay, IL-6-induced THP-1 adhesion to HMEC-1; assay type: cell-based, human; details: various concentrations, 1 h pretreatment, then 20 ng/ml IL-6 18 h; three independent experiments (Figure S4)
Experimental: (§1) Human micro-vascular endothelial cells-1 (HMEC-1, from American Type Culture Collection Manassas, USA) was cultured in MCDB 131 medium (Sigma, USA) with 15% fetal bovine serum (FBS; Sigma, USA). The medium was supplemented with 1% L-glutamine, 500 µg/ml streptomycin (Biowest, USA), 500 units/ml penicillin (Biowest, USA), 1 μg/ml hydrocortisone (Sigma, USA) and 10 ng/ml Epidermal Growth Factor (ProSpec, USA). The human acute monocytic leukemia cells (THP-1 cells) obtained from the Bioresource Collection and Research Center (Hsinchu, Taiwan) were cultivated in the RPMI-1640 medium (Invitrogen, USA) with 10% FBS. THP-1 were differentiated to macrophage by […] Phorbol 12-myristate 13-acetate (PMA; Sigma, USA) for 24 hours before peptides treatment.
(§2) To perform the test of monocyte adherence to endothelial cells monolayers, the HMEC-1 cell monolayers were cultivated on 24-well plates under serum-starvation condition prior to the monocyte binding assay. The peptides were added to the HMEC-1 cells for one hour prior to the activation by 20 ng/ml TNF-α (Sigma, USA), IL-1β (GOLDBIO, USA) and IL-6 (GOLDBIO, USA) for 18 hours. […] The adhered monocytes were detected and photographed (five images per well) by fluorescent microscopy and the amount of stuck THP-1 cells were counted by the software AlphaImager 2200 (Alpha Innotech, USA).

[2] = test system: TNF-α-induced adhesion of THP-1 to HMEC-1 cells; assay: Monocyte binding assay, TNF-α-induced THP-1 adhesion to HMEC-1; assay type: cell-based, human; details: various concentrations, 1 h pretreatment, then 20 ng/ml TNF-α 18 h; three independent experiments (Fig. 4D, Figure S4)
Experimental: as §1, §2

[3] = test system: IL-1β-induced adhesion of THP-1 to HMEC-1 cells; assay: Monocyte binding assay, IL-1β-induced THP-1 adhesion to HMEC-1; assay type: cell-based, human; details: various concentrations, 1 h pretreatment, then 20 ng/ml IL-1β 18 h; three independent experiments (Figure S4)
Experimental: as §1, §2

[4] = test system: TNF-α mRNA expression in HMEC-1 cells; assay: qPCR of cytokine-induced TNF-α mRNA in HMEC-1; assay type: cell-based, human; details: qPCR relative to GAPDH
Experimental: as §1
(§3) Cells were grown to confluence in 6-cm^2 culture plates. Peptides were incubated with TNF-α (20 ng/ml) for 1 h and then treated the cells for 4 h. […] An aliquot (5 µg) of purified RNA was reverse transcribed into first-strand complementary DNA (cDNA) with a 2720 Thermal Cycler (Applied Biosystems, Grand Island, NY, USA), 200 U/μl M-MLV reverse-transcriptase (Invitrogen) and […] oligo(dT)-adapter primers (Invitrogen) in a 20 μl reaction mixture. […] Quantitation of gene expression was conducted relative to GAPDH expression levels.

[5] = test system: white blood cell infiltration in the peritoneal cavity, BABL/c mice; assay: Thioglycollate-induced acute peritonitis model; assay type: in vivo, mouse; details: counts at 24 h
Experimental: The animal experiment was used 8- to 10-week-old male BABL/c mice to be the animal model. These mice were purchased from the National Laboratory Animal Breeding and Research Center, Taipei. The mice were housed in a temperature-controlled, light-cycled facility. Peritonitis was induced by an intraperitoneal injection of 4% (w/v) thioglycollate in 1 ml of sterile saline (Sigma–Aldrich, USA). Treatment with saline or peptides (5 mg/kg) was performed 4 h after the administration of thioglycollate by intravenous injection. At 24 h after thioglycollate injection, mice were killed by exposure to CO2, and 5 ml of HBSS was injected into the peritoneal cavity. Cells were obtained by aspirating peritoneal lavage. Differential cell counts were determined using a Hematology Analyzer (KX-21N; Sysmex, USA).

[6] = test system: TNF-α secretion in THP-1 cells; assay: ELISA of IL-1β-induced TNF-α secretion in THP-1; assay type: cell-based, human
Text: In addition, the decline in cytokine–receptor interactions might suppress cytokine mRNA expression and cytokine production in endothelial cells and monocytes. Treatment with KCF18 suppressed TNF-α mRNA expression following cytokines TNF-α, IL-1β and IL-6 stimulation (Fig. 6). To assess the efficacy of KCF18, we performed the RT-qPCR in THP-1 and HMEC-1 cells and ELISA assay for detecting TNF-α secretion including a TNF-α blocking antibody (R&D systems, USA)[57]–[59] as an additional condition in their experiments. […] We further analyze whether the KCF18 could suppress IL-1β induced TNF-α or TNF-α induced IL-1β expressions by ELISA assay (Supporting Figure S7). […] Since TNF-α blocking antibody captures the TNF-α in the conditioned medium, it may interfere the detection of TNF-α by ELISA (Supporting Figure S7). In summary, indeed, KCF18 expresses the ability to reduce cytokines induced TNF-α mRNA and protein expression. […] We also assessed the ability of KCF18 to inhibit TNF-α-mediated p65 nuclear translocation and endothelial ICAM-1 expression (Supporting Figure S8). […]
Figure S7: Peptide KCF18 and TNF-a antagonist antibody affect the protein expression of cytokine s-induced TNF-α an d I L-1b in TH P-1 cells. TNF-α and IL-1b secretion levels induced by (A) IL-1b and (B) TNF-α in THP-1 were determined using ELISA assays. […]

[7] = test system: TNF-α mRNA expression in THP-1 cells; assay: qPCR of cytokine-induced TNF-α mRNA in THP-1; assay type: cell-based, human; details: qPCR relative to GAPDH; TNF-α blocking antibody 1 μg/ml, peptide 500 nM; three independent experiments (Figure S6A)
Experimental: as §1, §3

HMEC-1 cells = assay: Cell cytotoxic assay (WST-1); assay type: cell-based, human; details: WST-1, 24 and 48 hours, 0.5 μM to 5 μM peptide (Figure S5)
Experimental: as §1
To assess whether the peptide KCF18 is toxic to the endothelial cells, 1 × 10^4 cells were placed into 96-well micro-plates and incubated for 2 hours for adherence. After adhesion, the medium with various concentrations of peptides (0.5 μM to 5 μM) were added to the wells. After 24 and 48 hours, the HMEC-1 cells were washed with Hank’s balanced salt solution and the survivals of HMEC-1 were detected by WST-1 assay kit (Roche, USA). The experiment was assessed in quadruplicate and repeated three times.

IL-6 = biological target: T1, IL-6 (Homo sapiens, UniProt P05231); assay: SPR binding to immobilized IL-6 (Biacore T200); details: CM5 chip, IL-6 immobilized (approximately 2000 RU), single cycle, 2, 10, 25, 50, 100 μM peptide, 10 μl/min, 25 °C, monovalent binding model, read-out: equilibrium dissociation KD
T1 construct: purchased GOLDBIO.COM, USA 1110-06
Experimental: The recombinant proteins of TNF-α (catalog^#1130-01), IL-1β (catalog^#1110-01B), and IL-6 (catalog^#1110-06) were purchased from the GOLDBIO.COM, USA.
The peptide KCF18 predicted from molecular docking and MM/PBSA binding free energy calculations were synthesized to confirm whether the peptide can bind to the pro-inflammatory cytokines by using SPR measurements. A Biacore T200 workstation (GE Healthcare, USA) was used for SPR detection. These cytokines (250 μg/ml TNF-α and 400 μg/ml IL-6) were diluted into 10 mM sodium acetate buffer at pH 4.0 and immobilized onto a CM5 sensor chip using amine coupling (EDC-NHS) for 210 secs at a flow rate of 10 μl/min. Approximately 5000 and 2000 response units (RU) of cytokines TNF-α and IL-6 were immobilized on the sensor chip, respectively. The flow channel-1 also treated the EDC-NHS as a reference to reduce the non-specific binding between dextran and peptides. […] The complexes were allowed to associate for 180 secs and then to dissociate for 90 secs. Surfaces were regenerated with an injection of 2 mM MgCl2 at a flow rate of 30 µl/min for 30 secs. A monovalent binding model was used to generate and fit the equilibrium binding curves for each peptide to determine the KD of the binding of peptide KCF18 with the pro-inflammatory cytokines.

[8] = biological target: T2, tumor necrosis factor-α (TNF-α), recombinant (UniProt P01375 77-233); assay: SPR; Biacore T200; cytokine (about 5000 RU TNF-α, about 2000 RU IL-6) amine-coupled to a CM5 chip; peptide flowed over, single cycle kinetics, KCF18 at 2, 10, 25, 50 and 100 μM, 10 μl/min, 25 °C; steady-state binding isotherm fitted with a monovalent binding model; details: both partners purified
T2 construct: TNF-α, bought recombinant protein; The bought product is probably the soluble mature human form (surmise); Amine-coupled to a CM5 chip for SPR; source: bought: GOLDBIO.COM, USA (catalog #1130-01)

[9] = biological target: T3, interleukin-6 (IL-6), recombinant (UniProt P05231 30-212); assay: as above; details: both partners purified
T3 construct: IL-6, bought recombinant protein; The simulations used human IL-6 (PDB 2IL6 with a modelled N-terminus); The bought product is probably mature human IL-6 (surmise); Amine-coupled to a CM5 chip for SPR; source: bought: GOLDBIO.COM, USA (catalog #1110-06)

T1 sequence (P05231 30-212): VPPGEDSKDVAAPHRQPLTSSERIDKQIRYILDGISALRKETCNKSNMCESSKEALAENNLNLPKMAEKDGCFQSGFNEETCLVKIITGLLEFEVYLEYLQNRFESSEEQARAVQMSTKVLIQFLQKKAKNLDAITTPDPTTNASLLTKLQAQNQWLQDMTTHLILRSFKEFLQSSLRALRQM
T2 sequence (P01375 77-233): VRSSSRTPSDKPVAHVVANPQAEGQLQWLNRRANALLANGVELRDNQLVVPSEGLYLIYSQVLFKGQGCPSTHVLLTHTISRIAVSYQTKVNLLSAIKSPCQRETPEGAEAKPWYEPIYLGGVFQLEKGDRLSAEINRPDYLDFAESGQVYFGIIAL

Which results are given for “CPLNGSTVYGHLRHCLSCSGTMVKF [CF25, a random peptide with 25 amino acids, negative control]”?
effect on IL-6-induced monocyte binding to HMEC-1 (in words) [1]: could not repress cytokine-increased monocyte binding to HMEC-1 cells; effect on TNF-α-induced monocyte binding to HMEC-1 (in words) [2]: could not repress cytokine-increased monocyte binding to HMEC-1 cells; effect on IL-1β-induced monocyte binding to HMEC-1 (in words) [3]: could not repress cytokine-increased monocyte binding to HMEC-1 cells; TNF-α-induced TNF-α mRNA expression in HMEC-1 (in words) ([4]; peptide incubated with TNF-α (20 ng/ml) 1 h, cells treated 4 h, three independent experiments (Fig. 6A)): had no inhibitory effect on TNF-α-induced TNF-α mRNA expression; total white blood cell infiltration in the peritoneal cavity (in words) ([5]; 5 mg/kg i.v. 4 h after i.p. 4% thioglycollate, mean ± SEM, n = 5 KCF18, n = 7 CF25, n = 6 control, *P < 0.05 vs control (Fig. 7)): had no potential anti-inflammatory effect

How did the “induction of TNF-α secretion in THP-1” value ([6]; 20 ng/ml IL-1β as stimulus) turn out when “IL-1β: recombinant IL-1β (GOLDBIO), used as stimulus [reference compound]” was run?
Its value is 2 fold.

What does the source list for “KCAKEMFAQKLPYSAVYF [mKCF18, mutant peptide of KCF18]”?
TNF-α-induced TNF-α mRNA expression in THP-1, antibody comparison (in words) [7]: had no inhibitory effect on TNF-α induced TNF-α mRNA expression in both cells; IL-1β-induced TNF-α expression in THP-1 (in words) ([6]; 20 ng/ml IL-1β, pretreatment with peptide, relative to cell lysate concentration, three independent experiments (Figure S7A)): could not inhibit IL-1β induced TNF-α expression; TNF-α-induced TNF-α mRNA expression in HMEC-1, antibody comparison (in words) ([4]; TNF-α blocking antibody 1 μg/ml, peptide 500 nM, three independent experiments (Figure S6B)): had no inhibitory effect on TNF-α induced TNF-α mRNA expression in both cells; WBC infiltration, comparison of mKCF18 with KCF18 (in words) ([5]; i.v. 4 h after i.p. thioglycollate, n = 3 for each group (Figure S9)): worse than KCF18 peptide

Which results are given for KCRKEMFKQKLPYSTVYF [KCF18]?
HMEC-1 cell viability vs control cells (in words) (HMEC-1 cells): no important discrepancy was noticed in cell viability among control cells and peptide-treated cells; Kd (IL-6): 111 µM

B1: composite peptide KCF18 (peptide)
peptide: KCRKEMFKQKLPYSTVYF
notes: designed 18-residue composite peptide: KCRKEM from TNFR1, FKQKLP from IL-1R, YSTVYF from the IL-6 receptor; also called designed peptide KCF18; source: synthetic peptide (GeneMark, GMbiolab Co., Ltd., Taiwan; solid phase)
Which Kd [8] does the source give for B1 here?
Its Kd is 60.9 µM.

And the Kd [9]?
The Kd was 112 µM.
